Earlier results on one molecule are cited in US11723862B2, “Dosage form with sustained release melatonin pellets” (SOCIÉTÉ DES PRODUITS NESTLÉ S.A., priority 2020, dated 2023).

Structures are written as SMILES.

The conditions of this data set: above pH=4.4.

On to `COc1ccc2[nH]cc(CCNC(C)=O)c2c1` [melatonin], for which the aqueous solubility entry is “low”.
